Reference: patent US4845129A, “Diaryl substituted cyclopentane and cyclopentene derivatives” (Sandoz Pharm. Corp., priority 1988, dated 1989)

Key:
[1] = system: PAF-induced human platelet aggregation; assay: Platelet Aggregation Inhibition Assay test (PAIA test): inhibition of PAF-induced human platelet aggregation in vitro; format: cell-based; settings: 0.1 h, platelet rich plasma, AUC over 6 min
Protocol: All of the compounds of formula I are useful as platelet activating factor inhibitors as indicated by their ability to inhibit platelet activating factor (PAF)-induced human platelet aggregation in vitro according to the Platelet Aggregation Inhibition Assay test (PAIA test) as follows:
Human subjects are kept aspirin free for one week and fasted overnight. Platelet rich plasma (PRP) is prepared by centrifugation (200×g.) of freshly drawn blood, anti-coagulated with 0.38% sodium citrate (final concentration). Platelet count is adjusted to 250,000 per μl using platelet poor plasma (PPP) obtained by a second centrifugation (700×g.) of the blood sample. An aliquot (0.38 ml) of the PRP is dispensed into cuvettes and maintained at room temperature (22° C.) until used (but for not more than two hours). The PRP-containing cuvettes are incubated at 37° C. and stirred at 900 rpm within a Payton Aggregometer which is activated to follow the light deflection pattern prior to the addition of the test compound. […] The aggregation response is quantitated by determining the area under the curve (AUC). The AUC calculated for the inducing agent alone is considered to be one hundred percent. […]

[2] = system: PAF-induced hypotension; assay: PAF-induced hypotension (Test D); format: in vivo, Wistar rats
Protocol: Male Wistar rats, weighing approximately 300 gm, are anesthetized and their carotid arteries cannulated to enable their diastolic and systolic arterial blood pressure measurements to be recorded. PAF is then administered intravenously at either 100 or 500 ng/kg, and the blood pressure drop (within 10 sec.) and recovery time required to reach the pre-injection blood pressure level are measured.

[3] = system: PAF-mediated extravasation; assay: PAF-induced Extravasation test (Test C), hemoconcentration; format: in vivo, guinea pigs; settings: Cavia porcellus, PAF 100 ng/kg i.v., hematocrit increase
[4] = system: PAF-mediated broncho-constriction (PAF-induced Pulmonary Inflation Pressure increase); assay: PAF-induced Pulmonary Inflation Pressure (PIP) Increase test (Test B); format: in vivo, guinea pigs; settings: Cavia porcellus, PAF 100 ng/kg i.v., maximal PIP
Protocol: Male guinea pigs, weighing between 300 and 400 gm, are anesthetized, after which time trachea tube, carotid and jugular catheters are inserted. The test animal is then force ventilated employing a small animal Harvard respirator and the resistance to lung inflation (PIP) is measured utilizing a pressure transducer and recorder. The test compound is administered orally at 30 minutes prior to, intravenously (jugular) at 5 minutes prior to, or intraarterially at 1 to 5 minutes prior to the introduction of PAF. The PAF (C18 -Sandoz, Hanover) is dissolved in Tris-Tyrode's bovine serum albumin buffer and administered intravenously (jugular) at 100 ng/kg. Any blood pressure measurements taken are recorded from a transducer attached to the carotid catheter.

[5] = target: T1, Human Platelet PAF Receptor (Homo sapiens, UniProt P25105); assay: Human Platelet PAF Receptor Assay test (Test A): inhibition of specific binding of [3H]-PAF to platelets; settings: inhibition of [3H]-PAF specific binding
T1 construct: endogenous in cells; host or cells: washed intact platelets from blood of healthy human donors
T1 sequence (P25105 whole entry): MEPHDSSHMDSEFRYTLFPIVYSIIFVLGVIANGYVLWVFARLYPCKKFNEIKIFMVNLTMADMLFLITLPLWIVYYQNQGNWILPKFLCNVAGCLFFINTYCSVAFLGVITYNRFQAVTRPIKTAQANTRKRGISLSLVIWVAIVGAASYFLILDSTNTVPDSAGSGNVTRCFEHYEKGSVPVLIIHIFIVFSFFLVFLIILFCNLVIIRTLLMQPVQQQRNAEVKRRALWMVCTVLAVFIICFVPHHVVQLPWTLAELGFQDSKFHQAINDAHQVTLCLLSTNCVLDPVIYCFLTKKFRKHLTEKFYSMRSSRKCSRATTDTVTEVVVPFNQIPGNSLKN
Protocol: Human blood is obtained by venipuncture of healthy, human donors into an anti-coagulant mixture containing 3.15% of trisodium citrate and 20 μg/ml of Prostaglandin I2 (PGI2) in a ratio of blood to anti-coagulant of 9:1. Platelet rich plasma (PRP) is prepared by centrifugation (250×g) of the blood for 20 minutes at room temperature. The PRP is then centrifuged […] for 10 minutes at room temperature and the platelet pellet is washed two times with Tris-Tyrode's (TT) solution having a pH of 7.4 and containing 0.25% bovine serum albumin (BSA), and to which has been added PGI2 at a final concentration of […]. The platelets are resuspended at […] in TT/BSA containing 1.4 mM CaCl2.2H2 O and 0.7 mM MgCl2.6H2 O. All of the tests are conducted in duplicate and each of the test compounds is evaluated at concentrations of 100, 500, 1 and 0.1 μM. For each determination, the following solutions are mixed:
500 μl of the above-described platelets;
10 μl of [^3 H]-PAF (40,000 counts per minute (cpm) to a final concentration of […]); and either
10 μl of the test compound at 50× the desired final concentration,
10 μl of vehicle (total bound), or
10 μl of 1.85×10^-5 M cold PAF (non-specifically bound).
Each mixture is allowed to incubate at room temperature for one hour, after which time the reaction is terminated by the addition of 500 μl of ice cold TT/BSA and centrifugation (900×g) at 4° C. for 10 minutes. The resultant supernatant is aspirated into scintillation vials and the pellet is washed with […]. of ice cold TT/BSA and centrifuged (900×g) at 4° C. for 10 minutes. The supernatants are then aspirated into the same scintillation vials as before and 10 ml. of Scintiverse II (a liquid scintillation cocktail) is added to and mixed therewith. The pellets are resuspended in 500 μl of Scintiverse II and mixed well. An additional 2 ml. of Scintiverse II is then added to the vials and, after mixing, the vials are counted for 1 minute in a liquid scintillation spectrometer. The amount of specific binding is calculated as the difference in cpm between the total bound [^3 H]-PAF and non-specifically bound [^3 H]-PAF. The percent inhibition of specific binding is determined by dividing the cpm specifically bound in the presence of the test compound by the cpm specifically bound in total, multiplying by 100 and then subtracting from 100. An IC50 (50% inhibitory concentration) value is generated by evaluating the test compound over the full concentration range.

Row | Compound | IC50 [5] [nM] | ED50 ([3]; po) [mg/kg] | ED50 ([4]; po) [mg/kg] | further results
1 | COc1cc([C@H]2CC[C@@H](c3cc(OC)c(OC)c(OC)c3)[C@H]2OC)cc(OC)c1OC [Example 5, (1α,2α,5α)-2,5-bis(Trimethoxyphenyl)-1-methoxy cyclopentane] | – | – | – | IC50 [1]: 22000 nM
2 | 1-0-alkyl-2-acetyl-sn-glyceryl-3-phosphoryl-choline [PAF] | – | – | – | decrease in blood pressure ([2]; PAF 100 ng/kg i.v.): 30%; decrease in blood pressure ([2]; PAF 500 ng/kg i.v.): 52%
3 | COc1cc(C2=CCC(c3cc(OC)c(OC)c(OC)c3)C2=O)cc(OC)c1OC (stereo not shown) [Example 1, 2,5-bis(3,4,5-Trimethoxyphenyl)cyclopent-2-enone] | 6000 | – | – | ED50 ([3]; i.a.): 1 mg/kg; ED50 ([4]; iv, i.a.): 1 mg/kg
4 | COc1cc([C@H]2CC[C@H](c3cc(OC)c(OC)c(OC)c3)C2OC)cc(OC)c1OC (relative stereo) [Example 4, (1α,2α,5β)-2,5-bis(Trimethoxyphenyl)-1-methoxy cyclopentane] | – | – | – | IC50 [1]: 880 nM; ED50 ([3]; i.a.): 0.4 mg/kg; ED50 ([4]; iv, i.a.): 0.5 mg/kg; ED50 ([2]; Rattus norvegicus, iv, PAF-induced blood pressure decrease): 0.12 mg/kg; IC50 ([5]; unit printed um): 100 nM
5 | COc1cc(C2CCC(c3cc(OC)c(OC)c(OC)c3)C2=O)cc(OC)c1OC (stereo not shown) [Example 2, 2,5-bis(3,4,5-Trimethoxyphenyl)cyclopentanone] | 900 | > 20 | > 20 | –
6 | COc1cc(C2CCC(c3cc(OC)c(OC)c(OC)c3)C2=NO)cc(OC)c1OC (stereo not shown) [Example 9, 2,5-bis(3,4,5-Trimethoxyphenyl)cyclopentanone, oxime] | 450 | 0.75 | 0.87 | –

Now from value to compound, other results behind:

Row | IC50 [5] [nM] | Compound | ED50 ([3]; po) [mg/kg] | ED50 ([4]; po) [mg/kg] | further results
7 | 2800 | COc1cc([C@H]2CC[C@@H](c3cc(OC)c(OC)c(OC)c3)[C@H]2O)cc(OC)c1OC [Example 3, 1α, 2α, 5α isomer, 2,5-bis(3,4,5-Trimethoxyphenyl)cyclopentanol] | > 20 | ~20 | –
8 | 2700 | COc1cc([C@H]2CC[C@H](c3cc(OC)c(OC)c(OC)c3)C2N)cc(OC)c1OC (relative stereo) [Example 10, 1α, 2α, 5β isomer, 1-Amino-2,5-bis(3,4,5-trimethoxyphenyl)cyclopentane] | – | – | –
9 | 4700 | COc1cc([C@H]2CC[C@H](c3cc(OC)c(OC)c(OC)c3)C2O)cc(OC)c1OC (relative stereo) [Example 3, 1α, 2α, 5β isomer, 2,5-bis(3,4,5-Trimethoxyphenyl)cyclopentanol] | > 20 | > 20 | –
10 | 22000 | COc1cc([C@H]2CC[C@@H](c3cc(OC)c(OC)c(OC)c3)[C@H]2N)cc(OC)c1OC [Example 10, 1α, 2α, 5α isomer, 1-Amino-2,5-bis(3,4,5-trimethoxyphenyl)cyclopentane] | – | – | –
